# Source: article PMC5085131, “Cyclic AMP efflux inhibitors as potential therapeutic agents for leukemia” (Oncotarget, 2016)
# Like-named read-outs stand apart in the source and are kept apart here.
# Tests used:
# [1] = molecular target: VLA-4; parameters: method as in PMID 18534032; conditions: cited from earlier work
# [2] = test system: B-ALL cell lines; experiment: CellTiter-Glo cell viability, all B-ALL cell lines together; assay type: cell-based, human; conditions: for EC50: Homo sapiens, mean of converged EC50s of six B-ALL lines, read-out: Compound EC50, Mean B-ALL (cell viability); for Sensitivity of B-ALL lines compared with U937 cells: cell viability, overnight
# Experimental: (§1) Cell viability was determined with the CellTiter-Glo® Luminescent Cell Viability Assay (Promega). Greiner 655083 had 100 μL cRPMI +/− 4×10^4 cells/well, and dose response curves of compounds ranged from 100 μM to 1.53 nM (1% DMSO). Wells with DMSO-only served as negative controls. Samples were incubated overnight, and the assay was completed according to the manufacturer's protocol. Plates were analyzed using a Victor^3V™ 1420 Multilabel Counter (Perkin Elmer).
# [3] = test system: primary B-ALL patient samples; experiment: CellTiter-Glo cell viability of primary ALL patient samples ex vivo; assay type: cell-based, human; conditions: for EC50: Homo sapiens
# Experimental: Bone marrow samples were acquired at diagnosis from pediatric B-ALL patients. Mononuclear cells were enriched by centrifugation in Ficoll-Paque (GE Healthcare, cat. 17-1440-02) and aliquoted for storage in liquid nitrogen until use. Samples were thawed in a 37°C water bath, resuspended in 20% FBS cRPMI, and centrifuged to remove freezing medium. Cells were resuspended in conditioned medium (DMEM, 10% FBS, 50 U/ml penicillin-streptomycin, 2 mM L-glutamine) from HS-5 stromal cell cultures.
# as §1
# For primary ALL patient samples, media consisted of 50% cRPMI, 50% conditioned DMEM from HS-5 stromal cell cultures and compounds. Cell densities ranged from 28,000-68,000 cells/well, and plates were foil-sealed prior to incubation.
# [4] = test system: normal human PBMCs; experiment: CellTiter-Glo cell viability; assay type: cell-based; conditions: PBMC, overnight, n = 6, ± SEM, read-out: Compound EC50, PBMCs (cell viability)
# Experimental: Healthy PBMCs were obtained from volunteers. Mononuclear cells were purified using Mono-Poly resolving medium (MP Biomedicals, cat. 091698049) according to manufacturer's instructions. PBMCs were resuspended in cRPMI and kept on ice prior to use.
# as §1
# [5] = parameters: method as in as printed in each cell; conditions: previously reported; cited from earlier work
# [6] = test system: U937 cells; experiment: CellTiter-Glo cell viability; assay type: cell-based; conditions: Homo sapiens, U-937; overnight, n = 8, ± SEM, fit top = 100, bottom = 0, hill slope = −1; read-out: Compound EC50, U937 (cell viability)
# Experimental: as §1
# [7] = test system: RS4;11; experiment: CellTiter-Glo cell viability; assay type: cell-based; conditions: Homo sapiens, overnight, n = 6, ± SEM, read-out: Compound EC50, RS4;11 (cell viability)
# Experimental: as §1
# [8] = test system: 697; experiment: CellTiter-Glo cell viability; assay type: cell-based; conditions: Homo sapiens; overnight, n = 6, ± SEM; read-out: Compound EC50, 697 (cell viability)
# Experimental: as §1
# [9] = test system: Sup B15; experiment: CellTiter-Glo cell viability; assay type: cell-based; conditions: Homo sapiens, overnight, n = 6, ± SEM, read-out: Compound EC50, Sup B15 (cell viability)
# Experimental: as §1
# [10] = test system: U937 cells; experiment: MultiCyt 4-Plex apoptosis assay; assay type: cell-based, human; conditions: Homo sapiens, U-937, 24 h
# Experimental: Apoptosis was determined using MultiCyt® 4-Plex Apoptosis Screening Kit (IntelliCyt, cat. 90053). The kit provides four different apoptosis endpoints that include effector caspases 3 and 7 activation, phosphatidylserine surface expression, mitochondrial membrane depolarization and cell membrane integrity. […] Cell membrane damage is detected by the uptake of a proprietary DNA intercalating agent analogous to 7-aminoactinomycin D.
# 384-well plates (Greiner 784201), pre-loaded with 5 μL cRPMI were stamped using a pintool with 100 nl of DMSO-solubilized compounds from the 100-fold concentrated stock solution. Next, 5 μL U937 cells (2 × 10^6/ml in cRPMI) were added to wells and mixed, and plates were foil-sealed. Compounds (Table 1) were tested in dose response at final concentrations ranging from 15.2 nM to 100 μM (1% DMSO final). Vehicle (DMSO) was used as a negative control. After 24 h incubation under culture conditions, the IntelliCyt MultiCyt 4-Plex Apoptosis Screening Kit was used according to manufacturer's protocol. The data were acquired using iQue Screener Platform (IntelliCyt). Singlet cell populations were analyzed for individual measures of apoptosis, and gates were set based on control histograms.
# [11] = test system: U937 cells; experiment: Cell viability by 7-AAD exclusion with or without KH7; assay type: cell-based, human; conditions: overnight, 6 μM KH7, 7-AAD staining
# Experimental: Cells treated with ICE and control samples were incubated with 1 μg/ml of 7-AAD for 20-60 minutes at 4°C on a rotator in the dark, and analyzed by flow cytometry according to manufacturer instructions. Gates were set on 7-AAD negative and positive events based on histograms. Percent of 7-AAD negative events is shown.
# [12] = test system: U937 cells; experiment: F-cAMP efflux assay in U937 cells (screen and dose response); assay type: cell-based, human; conditions: for Outcome of screen for inhibitors of cAMP efflux after dose-response validation: screen at 10 μM, 51 hits retested in dose-response
# Experimental: (§2) Cells were loaded with F-cAMP as described. Briefly, cells were resuspended in a hypertonic solution containing 10% polyethylene glycol 1000, 0.5 M sucrose, and 250 μM F-cAMP in cRPMI without FBS, incubated 10 min at room temperature, washed, and then resuspended in hypotonic solution (60% cRPMI, 40% sterile water) for 2 min at room temperature to complete F-cAMP loading. Cells were resuspended in cRPMI and equilibrated for 2 h under normal culture conditions.
# (§3) Samples were evaluated using Accuri C6 or BD FACScan flow cytometers (Becton Dickinson (BD)).
# Liquid handling was accomplished with a Biomek FX Multichannel system (Beckman-Coulter, Fullerton, CA, USA) and/or Biotek Multiflo system (Winooski, VT, USA). F-cAMP-loaded U937 cells (2000/well) were seeded into 384-well polypropylene plates (Greiner Bio-One 784201, Monroe, NC, USA). Cells were treated with compounds (10 μM final concentration) from the Prestwick Chemical Library (Illkirch, France) or […] Collection (MicroSource, Gaylordsville, CT, USA) delivered by pintool (V&P Scientific, San Diego, CA), at a final DMSO concentration of 1%. Plates were foil-sealed with AlumaSeal 384™ (Excel Scientific, Victorville, CA, USA), and incubated inverted overnight. Sample plates were analyzed by CyAn flow cytometers (Beckman-Coulter) configured with HyperCyt high-throughput auto-sampler systems (IntelliCyt, Albuquerque, NM, USA) using 488 nm excitation to assess FL-1 (530/40) MFI levels.
# Data were analyzed with HyperView software (IntelliCyt) and time-gated to determine data from each well. Wells with ≥ 50 events were evaluated for FL-1 MFI values. Samples with MFI values ≥ 2 standard deviations above the plate mean negative control values were considered “hit” compounds.
# To validate sample data and decrease the number of false-positive hits, compounds were assayed in a high-throughput dose response assay. Plates were set up as in the HTS, with the exception that the plate formats contained 10-well dose responses for each hit compound, at final concentrations ranging from 30 μM to 4 nM.
# The dose response data were normalized for percent response based on sample FL-1 MFI values in comparison to untreated F-cAMP-loaded cells kept at 4°C overnight or at time = 0, and were fitted by GraphPad Prism 5 software (GraphPad Software, La Jolla, CA, USA) for sigmoidal dose response with constrained hill slope = 1.
# [13] = test system: Reh; experiment: CellTiter-Glo cell viability; assay type: cell-based; conditions: Homo sapiens, overnight, n = 6, ± SEM, read-out: Compound EC50, Reh (cell viability)
# Experimental: as §1
# [14] = test system: B-ALL cell lines; experiment: F-cAMP efflux in B-ALL cell lines with MK-571; assay type: cell-based, human; conditions: 37°C
# Experimental: as §2, §3
# [15] = mean of converged EC50s of six patient samples, read-out: Compound EC50 (Sample means), cell viability
# [16] = primary B-ALL sample, duplicate, ± SEM, read-out: Compound EC50 (Patient no. 1), cell viability
# [17] = primary B-ALL sample, duplicate, ± SEM, read-out: Compound EC50 (Patient no. 2), cell viability
# [18] = primary B-ALL sample, duplicate, ± SEM, read-out: Compound EC50 (Patient no. 3), cell viability
# [19] = primary B-ALL sample, duplicate, ± SEM, read-out: Compound EC50 (Patient no. 5), cell viability
# [20] = primary B-ALL sample, duplicate, ± SEM, read-out: Compound EC50 (Patient no. 6), cell viability
# [21] = mean of converged EC50s, read-out: Compound EC50, Means (of the apoptosis endpoints)
# [22] = n = 4, ± SEM, read-out: Compound EC50, Cell membrane damage
# [23] = n = 4, ± SEM, read-out: Compound EC50, Mitochondrial depolarization
compound,measurement,setting,value
4-((N'-2-methylphenyl)ureido)-phenylacetyl-L-leucyl-L-aspartyl-L-valyl-L-prolyl-L-alanyl-L-alanyl-L-lysine-FITC [LDV-FITC],Kd,"[1]; high affinity state, read-out: Kd for physiologically activated VLA-4",0.001 to 0.002 µM
same,Kd,"[1]; low affinity state, read-out: Kd for binding to resting VLA-4",~0.012 µM
C[C@H]1[C@H](OC(=O)CCC(=O)O)O[C@@H]2O[C@@]3(C)CC[C@H]4[C@H](C)CC[C@@H]1[C@@]24OO3 [Artesunate],EC50,[2],153 µM
same,Sensitivity of B-ALL lines compared with U937 cells,[2],decreased sensitivity
same,EC50,[3]; [15],84.6 µM
same,EC50,[3]; [16],116 ± 55.2 µM
same,EC50,[3]; [17],115 ± 22.7 µM
same,EC50,[3]; [18],66 ± 27.6 µM
same,EC50,[3]; [19],24.6 ± 12.2 µM
same,EC50,[3]; [20],100 ± 48.7 µM
same,EC50,[4],280 ± 91.4 µM
same,Anticancer effects,[5],"↓metastasis/migration [80, 83]; ↓VEGF expression/angiogenesis [70, 76, 80]; ↓cyclins B & D1, Cdks 2, 4, 6[70]; ↑p21, p27 [70]"
same,Potential mechanism(s) of action,[5],"↓NFκB & AP-1 activation [83, 130, 131]; ↓nitric oxide, cAMP-mediated, Wnt/β-catenin, PI3K/Akt signaling [81, 130, 131]; ↑ROS [70, 72, 78]"
same,EC50,[6],7.99 ± 3.24 µM
same,EC50,[7],33.7 ± 10.6 µM
same,EC50,[8],99.6 ± 27.7 µM
same,EC50,[9],326 ± 88.5 µM
same,EC50,[10]; [21],24.6 µM
same,EC50,"[10]; n = 4, ± SEM, read-out: Compound EC50, Annexin-V +",29.5 ± 1.85 µM
same,EC50,[10]; [22],18.6 ± 1.89 µM
same,EC50,[10]; [23],25.7 ± 0.82 µM
C[C@H]1[C@@H](O)O[C@@H]2O[C@@]3(C)CC[C@H]4[C@H](C)CC[C@@H]1[C@@]24OO3 [Dihydroartemisinin],EC50,[2],74.4 µM
same,Sensitivity of B-ALL lines compared with U937 cells,[2],decreased sensitivity
same,EC50,[3]; [15],46.6 µM
same,EC50,[3]; [17],47.5 ± 12.2 µM
same,EC50,[3]; [18],83.2 ± 74.2 µM
same,EC50,[3]; [19],11.5 ± 5.02 µM
same,EC50,[3]; [20],44.1 ± 32.2 µM
same,Cell viability vs. vehicle treated sample at lower concentrations,[3]; samples from patients no. 1 and no. 5,significant increase in cell viability
same,EC50,[4],128 ± 34.2 µM
same,Anticancer effects,[5],"↓VEGF expression & angiogenesis [99, 101, 102]; ↓cyclin B, CDC25 [87]"
same,EC50,[6],1.32 ± 0.58 µM
same,EC50,[7],26.2 ± 7.94 µM
same,EC50,[8],55.5 ± 16.8 µM
same,EC50,[9],141 ± 49.5 µM
same,EC50,[10]; [21],16.4 µM
same,EC50,[10]; [22],23.7 ± 19.4 µM
same,EC50,[10]; [23],9.21 ± 7.52 µM
CC(Sc1nc2ccccc2[nH]1)C(=O)N/N=C/c1cc(Br)ccc1O (stereo not shown) [KH7],Effect of KH7 on cell viability loss induced by ICE,[11],significant protective effect
CN(C)C(=O)CCSC(SCCC(=O)O)c1cccc(/C=C/c2ccc3ccc(Cl)cc3n2)c1 (stereo not shown) [MK-571],EC50,[2],165 µM
same,EC50,[3]; [15],298 µM
same,EC50,[3]; [16],298 ± 140 µM
same,EC50,[4],157 ± 66.4 µM
same,EC50,"[12]; Homo sapiens, U-937, read-out: EC50 for cAMP efflux blocking, U937 cells loaded with F-cAMP, overnight, 37°C",~30 µM
same,Block of loss of F-cAMP probe fluorescence,"[12]; U937 cells, 24 h, 37°C",A significant part of this loss was blocked
same,EC50,[13],226 ± 93.6 µM
same,EC50,[6],94.2 ± 35.5 µM
same,EC50,[8],126 ± 109 µM
same,EC50,[9],144 ± 47.8 µM
same,Active F-cAMP efflux in the presence of MK-571,"[14]; Group 1: Sup-B15 and MHH-Call3, overnight",blocked completely
same,F-cAMP removed with MK-571,"[14]; Group 2: Reh and RS4;11, overnight, 75-80% without MK-571",30-40%
same,F-cAMP removed with MK-571,"[14]; Group 3: 697 and Nalm-6, overnight, > 90% without MK-571",60-70%
C[C@@H]1CC[C@H]2[C@@H](C)C(=O)O[C@@H]3O[C@@]4(C)CC[C@@H]1[C@]32OO4 [artemisinin],Outcome of screen for inhibitors of cAMP efflux after dose-response validation,[12],potentially active
CC1=NCCc2c1[nH]c1cc(O)ccc21 [harmalol],Outcome of screen for inhibitors of cAMP efflux after dose-response validation,[12],potentially active
O=C1c2ccc(O)c(O)c2C(=O)c2c(O)ccc(O)c21 [quinalizarin],Outcome of screen for inhibitors of cAMP efflux after dose-response validation,[12],potentially active
